Consider 1 molecule from patent US20150238519A1, “THERAPY FOR DRUG RESISTANT CANCER” (University of Central Florida Research Foundation, Inc., priority 2014, published 2015).

Test [1] concerns Frabin (FGD4). Kind of test: Western blotting of Frabin in extracts of CDX treated LNCaP-104S cells. Conditions: western blot. The format is cell-based. The text has this: FIG. 2. Expression of FGD4 in untreated LNCap-104R1, LNCaP-104S and LNCaP-104S cells treated with CDX and androgen withdrawal. FIG. 2 A: Western blot of the whole cell extracts. FIG. 2 B: Densitometric analysis of the expression. Data represents the average of 3 separate analyses.
Identification of targets regulated by our candidate miRNAs by MiRDB and TargetScan database search reveled a protein Frabin (FGD4), a GEF that is potentially regulated by mir-17, -21a and -106a and received higher target scores in both searches.

Test [2] relates to mir-17, mir-18a, mir-18b, mir-20a and mir-106a. The experiment in a line: Genome-wide miRNA array profiling of LNCaP-104S cells upon CDX treatment. The format is cell-based. As to conditions: CDX (5 μM) treatment and androgen blockade (CSFBS), vs untreated LNCaP-104S. The source says:
We used genome-wide miRNA array (1113 unique primers System Biosciences) profiling approach to dentify specific miRNAs that compensate for androgen ablation. Androgen-dependent (AD) subline of LNCaP cells LNCaP-104S (-104S) and its androgen independent (AI) derivative LNCaP-104R1 (-104R1) were used for monitoring differential expression of miRNAs upon treatment with casodex (CDX). LNCaP-104S cells are CDX-sensitive, whereas LNCaP-104R1 cells are not despite these cells express androgen receptor (AR) at a basal level higher than LNCaP-104S cells. LNCaP-104S cells require DHT for maintaining their AD status but when treated with CDX for 3 weeks in CSFBS (charcoal-stripped FBS), CDX insensitive colonies develop that are independent of androgen (CDXR). We profiled miRNA expression in −104S cells untreated and at 1 wk and 3 wks of treatment with CDX (5 μM) and CSFBS (Table 1). We also compared miRNA expression in untreated −104R1 cells. The ΔΔCT values were obtained for each sample (treatment condition) using LNCaP-104S untreated as the control.

Test [3] relates to LNCaP-104S cells. Conditions: androgen-dependent LNCaP-104S; cited from earlier work.
For test [4], the system named is LNCaP-104R1 cells. As to conditions: androgen independent LNCaP-104R1; cited from earlier work.

As to `CC(O)(CS(=O)(=O)c1ccc(F)cc1)C(=O)Nc1ccc(C#N)c(C(F)(F)F)c1` (stereo not shown) [CDX], the “increase in expression of Frabin” value in test [1] is given as above 2.0 fold. The “down regulation of mir-17, mir-18a, mir-18b, mir-20a and mir-106a” value in test [2] is on record as 9-10 fold. Besides, the CDX sensitivity entry in test [3] is on record as “CDX-sensitive”; in test [4], “are not”.
